This is an account of results in patent US8927580B2, “Thiosemicarbazone compounds and use in the treatment of cancer” (Oncochel Therapeutics LLC, priority 2010, dated 2015).

Series [1] relates to human RBCs (methemoglobin formation). In kind it is cell-based. Conditions: 3 h, 25 μM. On the procedure: FIG. 12. Effect of DFO and thiosemicarbazone chelators on metHb-formation in vitro. Whole RBCs were incubated with 1-25 μM chelator at 37° C. for 3 h. Cells were lysed with ultra-pure H2O and metHb levels were measured spectrophotometrically. Results are the mean±SD from 3 experiments.
Whole blood samples were collected from healthy human donors or mice in suitable blood collection tubes containing EDTA and used immediately. Red blood cells (RBCs) were isolated by centrifugation (480 xg/5 min/4° C.) then washed in Hank's balanced salt solution (HBSS). RBCs were resuspended 1:1 in HBSS and whole RBC assays were carried out at 37° C.
(§1) The levels of metHb and metMb in RBC lysates were determined using a Shimadzu UV-Vis spectrophotometer (UV-1800; Shimadzu Corporation, Kyoto, Japan) at 577 nm and 630 nm for metHb and metMb in accordance with published methods (Winterbourn CC and Carrell R W (1977). Biochem J 165: 141-148).
The effect of chelator concentration (1-25 μM) on metHb-generation with intact RBCs was assessed (FIG. 12). […] At 25 μM, these chelators increased metHb formation to 19.95±1.0 and 19.9±3.0% of total Hb, respectively (FIG. 12). The negative control chelator Dp2mT, by design, features a methyl group that hinders complex formation. Accordingly, this chelator cannot participate in the redox-interaction with iron that gives rise to metHb formation (FIG. 12).

Series [2] relates to metmyoglobin (metMb). The experiment in a line: metMb formation in vivo. Conditions: 6 mg/kg intravenously, 30 min post-administration, heart. Also noted: species or system C57BL6 mice. On the procedure:
FIG. 14. Effect of thiosemicarbazone chelators on metMb-formation in vivo. MetMb levels after Dp44mT Triapine® or Dp4cycH4mT treatment in vivo at a dose of 6 mg/kg administered intravenously via the tail vein. Mice in the control group were treated with vehicle alone. At 30 min post-administration, whole hearts were collected for determination of metMb levels.
Mouse heart tissue was exhaustively perfused with ice-cold HBSS to remove blood and homogenized in ice-cold HBSS containing protease inhibitor cocktail (Roche, Basel, Switzerland). Heart homogenates were centrifuged (16,000×xg/45 min/4° C.) and the supernatant ([oxyMb]=50 μM) used immediately.
as §1
C57BL6 mice (7-8 weeks-old) were used under a protocol approved by the university of Sydney Animal Ethics Committee. Dp44mT, Triapine® or Dp4cycH4mT (all at 6 mg/kg) were dissolved in 30% propylene glycol/saline and administered iv via the tail vein. Subsequently, 30 min after administration, mice were anesthetized with isoflurane and blood samples obtained by cardiac puncture. Blood samples were lysed with 2.5 volumes of ultrapure water for metHb estimation. Mice were sacrificed with isoflurane, the heart exhaustively perfused with HBSS and Mb isolated.

The subject of series [3] is PANC 1 pancreatic cancer cells. The experiment in a line: MTT proliferation assay, PANC 1. In kind it is cell-based. Conditions: Homo sapiens; PANC 1, MTT, 72 h. On the procedure:
(§2) The pancreatic cancer cell lines, including MIAPaCa-2, PANC 1, CAPAN-2 and CFPAC-1 were a generous gift from Prof. Andrew Biankin (Garvan Institute, NSW, Australia). The MIAPaCa-2, PANC 1 and CFPAC-1 cell lines were grown in DMEM medium (Invitrogen) and CAPAN-2 cells were grown in McCoy's medium (Invitrogen). All media was supplemented with 10% (v/v) fetal calf serum (Invitrogen), 1% (v/v) non-essential amino acids (Invitrogen), 1% (v/v) sodium pyruvate (Invitrogen), 2 mM L-glutamine (Invitrogen), 100 μg/mL of streptomycin (Invitrogen), 100 U/ml penicillin (Invitrogen), and 0.28 μg/mL of fungizone.
(§3) To further examine the spectrum of anti-proliferative activity, Dp4cycH4mT was tested against pancreatic cancer in vitro, performing MTT proliferation assays with PANC 1, MIAPaCa-2, CFPAC-1 and CAPAN-2 pancreatic cancer cells. As a comparison, currently used treatments for pancreatic cancer including gemcitabine and 5-fluorouracil were also tested. The iron chelator, DFO, was included as a positive control.
(§4) Table 2A. Anti-proliferative activity of Dp4cycH4mT against pancreatic cancer cell lines. Growth and antiproliferative activity IC50 (μM) values of Dp4cycH4mT in a variety of pancreatic cell lines and in comparison to DFO and the clinically used drugs gemcitabine and 5-fluorouracil as determined by the MTT assay. Cells were seeded and allowed to attach to wells for 24 h and then incubated for 72 h at 37° C. with control medium or the chelators. Results are mean±SD (3 experiments).
(§5) Table 2B. Anti-proliferative activity of Dp4cycH4mT against pancreatic cancer cell lines. IC90 (μM) values of Dp4cycH4mT in a variety of pancreatic cell lines and in comparison to DFO and the clinically used drugs gemcitabine and 5-fluorouracil as determined by the MTT assay. Cells were seeded and allowed to attach to wells for 24 h and then incubated for 72 h at 37° C. with control medium or the chelators. Results are mean±SD (3 experiments).
A general note: Formazan colour is commonly taken as a measure of viable cells.

For series [4], the system named is MIAPaCa-2 pancreatic cancer cells. Nature of the series: MTT proliferation assay, MIAPaCa-2. The class given is cell-based. Conditions: Homo sapiens, MIA PaCa-2; MIAPaCa-2, MTT, 72 h. On the procedure: as §2, §3, §4, §5
For series [5], the system named is PANC 1 human pancreatic carcinoma. Nature of the series: PANC 1 xenograft in nude mice: tumour growth. In kind it is in vivo, nude mice (BALBc nu/nu). The method, then:
FIG. 5). […] (5 mg/kg) or vehicle control.

In series [6] the test system is CFPAC-1 pancreatic cancer cells. Nature of the series: MTT proliferation assay, CFPAC-1. In kind it is cell-based. Conditions: Homo sapiens; CFPAC-1, MTT, 72 h. On the procedure:
as §2, §3, §4, §5

The subject of series [7] is p21. Nature of the series: Western blot analysis, p21 expression. In kind it is cell-based. Conditions: MIAPaCa-2 cells. The method, then:
(§6) Western analysis was performed via established protocols (Gao, J. and D. R. Richardson (2001). Blood 98: 842-50). The primary antibodies used were against NDRG1 (Abcam; UK), p21, cyclin D1, transferrin receptor 1 (TfR1; Santa Cruz, CA, USA) and β-actin (Sigma-Aldrich), with secondary HRP-conjugated goat and mouse antibodies (Sigma-Aldrich).
(§7) Dp4cycH4mT was examined to determine whether it could up-regulate NDRG-1 expression. To further evaluate the effect of the chelator Dp4cycH4mT on other key molecules involved in cell cycle progression, the expression of the cyclin-dependent kinase inhibitor, p21, as well as cyclin D1 in MIAPaCa-2 cells was also examined.
(In general: A western blot detects proteins with antibodies after separation by electrophoresis.)

Series [8] has as its system NDRG1. The experiment in a line: Western blot analysis, NDRG1 expression. In kind it is cell-based. Conditions: MIAPaCa-2 cells. The method, then: as §6, §7
The test system of series [9] is CAPAN-2 pancreatic cancer cells. Nature of the series: MTT proliferation assay, CAPAN-2. The class given is cell-based. Conditions: Homo sapiens; CAPAN-2, MTT, 72 h. On the procedure: as §2, §3, §4, §5
For series [10] the following is noted: mouse, in vivo.
The subject of series [11] is cyclin D1. Nature of the series: Western blot analysis, cyclin D1 levels. In kind it is cell-based. Conditions: MIAPaCa-2 cells. On the procedure: as §6, §7
The subject of series [12] is transferrin receptor 1 (TfR1). Nature of the series: Western blot analysis, transferrin receptor 1 levels. In kind it is cell-based. Conditions: MIAPaCa-2 cells. On the procedure:
as §6, §7

On to `NC(=S)NN=Cc1ncccc1N` [Triapine®, 3-aminopyridine-2-carboxaldehyde thiosemicarbazone], for which the “metHb formation (% of total Hb)” value in series [1] was 19.95±1.0 % of total Hb. Further, the “levels of metMb” value in series [2] is 75.2±4.2%.
Take `Nc1ccn([C@@H]2O[C@H](CO)[C@@H](O)C2(F)F)c(=O)n1` [Gemcitabine, gemcitabine]: in [3], it took 11 ± 0.8 µM to reach half-maximal inhibition (IC50) and the IC90 (as a rule, the concentration at which the effect reaches the 90% level) is > 5 µM. In addition, in series [4], the IC50 (as a rule, the concentration that gives 50% inhibition) was found to be 20 ± 5 nM and the IC90 was > 5 µM. In series [5] (Gemcitabine 5 mg/kg/day), this compound showed a Tumour weight of 0.07 ± 0.02 g. The “average tumour size (% of the original tumour size)” value in series [5] (after 6 weeks, gemcitabine 5 mg/kg intra-peritoneally every 3rd day) amounted to 319%. The final tumour weight in [5] (after 43 days, gemcitabine 5 mg/kg intra-peritoneally every 3rd day) stood at 67 ± 25 mg. In series [6], this compound returned an IC50 of 20 ± 20 nM and an IC90 of 30.4 ± 2.2 µM. Also, the p21 expression entry in series [7] is reported as “did not modulate”. Also, the NDRG1 expression result in series [8] is given as “no marked effect”. Besides, in [9], the IC50 turned out to be 40.8 ± 4.7 µM and the IC90 was > 5 µM. Also, in series [10], the “KIDNEY Fe (score for presence of iron stained by Perl's stain)” value is given as “−”, the “LIVER HP (histopathological changes)” value is “N”, the “LUNG HP (histopathological changes)” value is reported as “N” and the “MYOCARDIUM Fibrosis” value was “−”. Moreover, in series [10], the “MYOCARDIUM HP (histopathological changes)” value is reported as “N”, the “SPLEEN HPC (score for the presence of haematopoietic cells in the splenic red pulp)” value is listed as “N” and the “iron deposits in the kidney” value is “no evidence of iron deposits”. Moreover, the “cyclin D1 levels” value in series [11] is reported as “did not modulate”. For the same compound, in series [12], the TfR1 levels result is reported as “did not modulate”.
